Results on 16 compounds are retold here after ChEMBL document CHEMBL1201862, “PubChem BioAssay data set” (2004).

Structures are written as SMILES.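 Following 48 hours of exposure in 96-well plates, responses at five concentrations were used to interpolate endpoints linearly. GI50 marks 50% less growth.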 The source made the active and inactive calls. Cut-off read from the data, not from the text of the source: active = GI50 up to about 1.1 µM and inactive = higher.

Some test systems named below: EKVX; HCT-15; OVCAR-8; SNB-75; NCI-H226; HOP-62; SF-295; SNB-19; LOX IMVI; TK-10; UACC-257; RXF 393; NCI-H460; CAKI-1.
Test in all cases: inhibition of tumour cell growth, NCI panel, 48 h

For `NC1CCCCC1.O=C(O)C(CP(=O)(O)O)=C(Cl)Cl`, the GI50 was > 100 µM (inactive) with EKVX; more than 100 µM in the assay on HCT-15; > 100 µM (inactive) with OVCAR-8; > 100 µM (inactive) in the assay on SNB-75; > 100 µM (inactive) in the assay with NCI-H226; > 100 µM (inactive) in the assay with HOP-62. Moreover, the GI50 in the assay on SF-295, with SNB-19, in the assay with LOX IMVI, in the assay with TK-10, in the assay on UACC-257 and in the assay on RXF 393 was > 100 µM (inactive) each time. Besides, the GI50 in the assay with NCI-H460 was > 100 µM (inactive).
With `OCCSCC/C(=N\N=C(/CCSCCO)c1ccccc1)c1ccccc1`, the GI50 in the assay on EKVX is > 100 µM (inactive); with HCT-15, more than 100 µM; in the assay on OVCAR-8 it was 89.5 µM (inactive); in the assay with NCI-H226, > 100 µM (inactive); in the assay with HOP-62, > 100 µM (inactive); in the assay on SF-295 it was 34.4 µM (inactive). Also, the GI50 in the assay on SNB-19 is > 100 µM (inactive); in the assay with LOX IMVI, 93.8 µM (inactive); in the assay with CAKI-1, 32.1 µM (inactive); in the assay on TK-10, > 100 µM (inactive); in the assay with UACC-257, > 100 µM (inactive); with RXF 393 it was 36.2 µM (inactive). Moreover, the GI50 with NCI-H460 is 69.5 µM (inactive).
In the case of `CN(CCc1ccccn1)c1nc(=[N+](C)C)ss1`, the GI50 was > 100 µM (inactive) with EKVX; more than 100 µM with HCT-15; > 100 µM (inactive) in the assay with OVCAR-8; > 100 µM (inactive) in the assay on SNB-75; > 100 µM (inactive) in the assay on HOP-62; 56.1 µM (inactive) in the assay on SF-295. Besides, the GI50 with SNB-19, in the assay on LOX IMVI, in the assay on CAKI-1, with TK-10, in the assay with UACC-257 and with RXF 393 was > 100 µM (inactive) throughout. Besides, the GI50 in the assay with NCI-H460 is 46.3 µM (inactive).
`O=C(NC(=S)Nc1ccccc1)c1ccc([N+](=O)[O-])cc1`: the GI50 is > 100 µM (inactive) with EKVX; 38.5 µM in the assay on HCT-15; > 100 µM (inactive) with OVCAR-8; > 100 µM (inactive) in the assay with SNB-75; > 100 µM (inactive) with HOP-62; 45.1 µM (inactive) in the assay on SF-295. Besides, the GI50 is 84.1 µM (inactive) in the assay on LOX IMVI; 73.8 µM (inactive) in the assay with CAKI-1; > 100 µM (inactive) with TK-10; 60.3 µM (inactive) in the assay on UACC-257; 37.1 µM (inactive) in the assay with NCI-H460.
Consider `CN(C)CCC[N+]1=Nc2cccc3cccc(c23)N1`, for which the GI50 is > 100 µM (inactive) in the assay with EKVX; 39.3 µM in the assay on HCT-15; 46.6 µM (inactive) in the assay with OVCAR-8; > 100 µM (inactive) with SNB-75; > 100 µM (inactive) in the assay on NCI-H226; > 100 µM (inactive) with HOP-62. For the same compound, the GI50 was > 100 µM (inactive) in the assay with SF-295; > 100 µM (inactive) in the assay with SNB-19; 31.9 µM (inactive) in the assay with LOX IMVI; 37.1 µM (inactive) with CAKI-1; 59.4 µM (inactive) with TK-10; 48.5 µM (inactive) in the assay with UACC-257. The GI50 with NCI-H460 was 35.6 µM (inactive).
As to `COc1ccc(C2[C@@H](Cl)C(=O)N2c2ccc(OC)cc2)cc1` (stereo partly drawn), the GI50 was > 100 µM (inactive) in the assay with EKVX; 46.2 µM (inactive) in the assay with OVCAR-8; 15.1 µM (inactive) with SNB-75; > 100 µM (inactive) in the assay with NCI-H226; 28.7 µM (inactive) in the assay with SF-295; 45.5 µM (inactive) in the assay with SNB-19. The GI50 is 30.4 µM (inactive) with CAKI-1; > 100 µM (inactive) in the assay on TK-10; 46 µM (inactive) in the assay on UACC-257; 22.4 µM (inactive) in the assay with RXF 393; 51.4 µM (inactive) with NCI-H460.
Regarding `CCCCCCCCCC[C@@H](O)[C@@H]1CC[C@H]([C@H]2CC[C@@H]([C@@H](O)CCCCCCCCCC[C@H]3CC(CC(C)=O)C(=O)O3)O2)O1` (stereo partly drawn), the GI50 is 7.16 µM (inactive) in the assay on EKVX; 4.55 µM in the assay on HCT-15; 8.47 µM (inactive) in the assay with OVCAR-8; 12 µM (inactive) in the assay with SNB-75; 3.09 µM (inactive) in the assay on NCI-H226; 15.1 µM (inactive) with HOP-62. In addition, the GI50 with SNB-19 is 10.4 µM (inactive); in the assay on LOX IMVI, 10.2 µM (inactive); in the assay on CAKI-1, 16.7 µM (inactive); with TK-10, 12.6 µM (inactive); with UACC-257, 0.955 µM (active); in the assay on NCI-H460, 15.7 µM (inactive).
`O=C(O)C1CCC(=O)N1C(=O)C(Cl)c1ccccc1` (stereo not drawn): the GI50 with EKVX is > 100 µM (inactive); in the assay with HCT-15, more than 100 µM; in the assay with OVCAR-8 it was > 100 µM (inactive); with SNB-75 it was > 100 µM (inactive); with NCI-H226 it was > 100 µM (inactive); in the assay with HOP-62 it was > 100 µM (inactive). Further, the GI50 in the assay with SF-295, with SNB-19, with LOX IMVI, in the assay on CAKI-1, in the assay with TK-10 and in the assay on UACC-257 was > 100 µM (inactive) each time. Also, in the assay with NCI-H460, the GI50 was > 100 µM (inactive).
On to `Cc1c2c(ccc3ccccc32)c[n+]2ccccc12`, for which the GI50 was 86.9 µM with HCT-15; 12.4 µM (inactive) with OVCAR-8; 4.21 µM (inactive) in the assay with SNB-75; 5.3 µM (inactive) in the assay on NCI-H226; 3.23 µM (inactive) with HOP-62; 3.78 µM (inactive) in the assay on SF-295. In addition, the GI50 with SNB-19 was 2.07 µM (inactive); with CAKI-1, > 100 µM (inactive); with TK-10, > 100 µM (inactive); in the assay on UACC-257 it was 10.2 µM (inactive); with NCI-H460 it was > 10 µM (inactive).
For `N=c1c2ccccc2sc2nc3ccccc3n12`, the GI50 in the assay with EKVX is 86.1 µM (inactive); in the assay on OVCAR-8, > 100 µM (inactive); with NCI-H226 it was 57.9 µM (inactive); in the assay with HOP-62, > 100 µM (inactive); in the assay on SF-295, > 100 µM (inactive); with SNB-19, > 100 µM (inactive). The GI50 was > 100 µM (inactive) with LOX IMVI; 48.6 µM (inactive) with CAKI-1; > 100 µM (inactive) in the assay on TK-10; > 100 µM (inactive) in the assay with UACC-257; > 100 µM (inactive) in the assay with RXF 393; > 100 µM (inactive) with NCI-H460.
For `CC(SC(=S)Nc1cccc(F)c1)C(=O)O` (stereo not drawn), the GI50 with EKVX was 51.2 µM (inactive); in the assay on HCT-15, 26.1 µM; in the assay on OVCAR-8 it was 25.5 µM (inactive); in the assay on NCI-H226, 20.1 µM (inactive); in the assay with HOP-62, 18.3 µM (inactive); in the assay on SF-295, 23.9 µM (inactive). In addition, the GI50 was 29.4 µM (inactive) with SNB-19; 16.1 µM (inactive) with LOX IMVI; 45.8 µM (inactive) in the assay on CAKI-1; 29.2 µM (inactive) in the assay on TK-10; 16.6 µM (inactive) in the assay with UACC-257; 14.2 µM (inactive) in the assay on RXF 393. For the same compound, in the assay with NCI-H460, the GI50 is 26.2 µM (inactive).
Take `CC/N=C(/C#N)NCC`: the GI50 with EKVX is > 100 µM (inactive); with HCT-15, 46.2 µM; in the assay on OVCAR-8 it was > 100 µM (inactive); in the assay with SNB-75 it was > 100 µM (inactive); with NCI-H226 it was > 100 µM (inactive); with HOP-62 it was > 100 µM (inactive). Also, the GI50 is > 100 µM (inactive) in the assay with SF-295; > 100 µM (inactive) with SNB-19; > 100 µM (inactive) in the assay on LOX IMVI; > 100 µM (inactive) in the assay with CAKI-1; > 100 µM (inactive) with TK-10; 55.3 µM (inactive) in the assay with UACC-257. Further, the GI50 in the assay on NCI-H460 is > 100 µM (inactive).
Consider `COc1ccc(C(=O)Nc2ccccc2C#N)cc1`, for which the GI50 in the assay on EKVX is > 100 µM (inactive); in the assay on HCT-15, more than 100 µM; in the assay with OVCAR-8, > 100 µM (inactive); in the assay on SNB-75, 51.1 µM (inactive); in the assay on HOP-62, > 100 µM (inactive); with SF-295, > 100 µM (inactive). The GI50 with SNB-19, in the assay with LOX IMVI, in the assay on CAKI-1, in the assay on TK-10, in the assay on UACC-257 and in the assay with RXF 393 was > 100 µM (inactive) throughout. Moreover, the GI50 in the assay on NCI-H460 is > 100 µM (inactive).
`Cc1nnc2n1N=C(CC(=O)c1ccc(O)cc1O)CN2N`: the GI50 with EKVX was > 100 µM (inactive); in the assay with HCT-15 it was 15.5 µM; in the assay with HOP-62 it was > 100 µM (inactive); in the assay with SF-295, > 100 µM (inactive); in the assay on SNB-19, > 100 µM (inactive); in the assay on LOX IMVI it was 68.9 µM (inactive). Also, the GI50 in the assay on CAKI-1 is > 100 µM (inactive); with TK-10, > 100 µM (inactive); in the assay with UACC-257 it was > 100 µM (inactive); in the assay with RXF 393 it was > 100 µM (inactive); with NCI-H460, 38.7 µM (inactive).
Consider `Cn1c(C2CCCc3c2c2ccccc2n3C)cc2ccccc21` (stereo not drawn), for which the GI50 with EKVX is 115 µM (inactive); in the assay with HCT-15 it was 43.1 µM; with OVCAR-8, > 318 µM (inactive); in the assay with NCI-H226 it was 216 µM (inactive); in the assay on HOP-62 it was 286 µM (inactive); with SF-295, 70 µM (inactive). The GI50 is > 318 µM (inactive) in the assay with SNB-19; 130 µM (inactive) in the assay with LOX IMVI; 115 µM (inactive) with CAKI-1; > 318 µM (inactive) in the assay on TK-10; 90.2 µM (inactive) in the assay with UACC-257; 95.1 µM (inactive) in the assay on RXF 393. Moreover, the GI50 in the assay with NCI-H460 is 125 µM (inactive).
On to `Nc1ccc2n[se]nc2c1`, for which the GI50 with EKVX is > 100 µM (inactive); in the assay with HCT-15, more than 100 µM; with OVCAR-8, > 100 µM (inactive); in the assay with SNB-75 it was > 100 µM (inactive); in the assay on HOP-62, > 100 µM (inactive); in the assay on SF-295, > 100 µM (inactive). Besides, the GI50 was > 100 µM (inactive) in the assay on SNB-19; 29.6 µM (inactive) with LOX IMVI; > 100 µM (inactive) with CAKI-1; 23.8 µM (inactive) in the assay with TK-10; > 100 µM (inactive) in the assay with UACC-257; > 100 µM (inactive) with RXF 393. Also, in the assay on NCI-H460, the GI50 is > 100 µM (inactive).
